# Data as given in ChEMBL document CHEMBL5380844, “Discovery of a Novel, Potent, Orally Active, and Safe Inhibitor Targeting Human Mitochondrial RNA Polymerase” (J Med Chem, 2023).
# Calls of active or inactive are those of the source. The calls are words filed in the database; no cut-off is given here.
# Experiments:
# Cytochrome P450 3A4 = Cytochrome P450 3A4 (Homo sapiens, UniProt P08684); assay: Inhibition of […] (unknown origin) using midazolam as substrate in presence of NADPH by LC/MS/MS analysis; assay type: ADME
# Chain of Cytochrome P450 3A4 (P08684 whole entry): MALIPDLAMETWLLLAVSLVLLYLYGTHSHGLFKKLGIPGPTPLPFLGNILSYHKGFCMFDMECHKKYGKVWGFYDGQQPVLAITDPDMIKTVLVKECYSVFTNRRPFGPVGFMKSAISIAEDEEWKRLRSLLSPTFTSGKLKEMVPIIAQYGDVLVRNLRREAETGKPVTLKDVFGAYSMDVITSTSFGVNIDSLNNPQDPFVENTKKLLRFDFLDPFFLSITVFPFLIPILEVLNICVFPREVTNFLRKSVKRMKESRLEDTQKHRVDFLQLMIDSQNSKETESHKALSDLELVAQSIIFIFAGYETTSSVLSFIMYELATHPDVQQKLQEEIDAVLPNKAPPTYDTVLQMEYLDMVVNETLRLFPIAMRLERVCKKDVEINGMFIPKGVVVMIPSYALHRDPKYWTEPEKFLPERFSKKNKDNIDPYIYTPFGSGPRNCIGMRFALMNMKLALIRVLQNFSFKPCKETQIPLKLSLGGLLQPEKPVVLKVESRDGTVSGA
# [1] = Volume of distribution at steady state in ICR mouse at 1 mg/kg, iv measured upto 24 hrs by LC-MS/MS analysis; assay type: ADME, organism-based; conditions: in vivo, read-out: Vdss
# [2] = Efflux ratio of apparent permeability across basolateral to apical side over apical to basolateral side in human Caco2 cells at 3 uM incubated for 2 hrs by LC-MS/MS analysis; assay type: ADME, cell-based; conditions: Caco-2
# A2780 [3] = assay: Inhibition of MT-CO3 expression in human A2780 cells at 100 nM incubated for 12 hrs by RNA sequencing analysis; assay type: functional, cell-based
# NCI-H1975 = assay: Antiproliferative activity against human NCI-H1975 cells incubated for 168 hrs by SRB method; assay type: functional, cell-based; conditions: NCI-H1975, 168 h
# A2780 [4] = assay: Antitumor activity against human A2780 cells xenografted in BALB/c nude mouse model assessed as effect on heart 100 mg/kg, po measured after 27 days; assay type: functional, organism-based; conditions: time 27.0 day
# [5] = Inhibition of ND1 transcript level in human A2780 cells at 500 nM measured after 12 hrs by RT-qPCR analysis relative to control; assay type: functional
# A2780 [6] = assay: Inhibition of MT-ND4L expression in human A2780 cells at 100 nM incubated for 12 hrs by RNA sequencing analysis; assay type: functional, cell-based
# A2780 [7] = assay: Induction of apoptosis in human A2780 cells assessed as late apoptotic cells at 50 nM incubated for 96 hrs by Annexin-V/FITC and PI staining based flow cytometry analysis (reference value: 3.79%); assay type: functional
# A2780 [8] = assay: Downregulation of UQCR level in human A2780 cells by Western blot analysis; assay type: functional, cell-based; conditions: dose <= 500.0 nM
# A2780 [9] = assay: Induction of cell cycle arrest in human A2780 cells assessed as accumulation of cells at G2 phase at 100 nM measured after 96 hrs by PI staining based flow cytometry analysis (reference value: 4.49%); assay type: functional
# A2780 [10] = assay: Antitumor activity against human A2780 cells xenografted in BALB/c nude mouse model assessed as decrease in tumor volume administered po daily and measured after 27 days; assay type: functional, organism-based; conditions: dose 50-100 mg/kg, time 27.0 day
# Cytochrome P450 2C19 = Cytochrome P450 2C19 (Homo sapiens, UniProt P33261); assay: Inhibition of CYP2C19 (unknown origin) using S-mephenytoin as substrate in presence of NADPH by LC/MS/MS analysis; assay type: ADME
# Chain of Cytochrome P450 2C19 (P33261 whole entry): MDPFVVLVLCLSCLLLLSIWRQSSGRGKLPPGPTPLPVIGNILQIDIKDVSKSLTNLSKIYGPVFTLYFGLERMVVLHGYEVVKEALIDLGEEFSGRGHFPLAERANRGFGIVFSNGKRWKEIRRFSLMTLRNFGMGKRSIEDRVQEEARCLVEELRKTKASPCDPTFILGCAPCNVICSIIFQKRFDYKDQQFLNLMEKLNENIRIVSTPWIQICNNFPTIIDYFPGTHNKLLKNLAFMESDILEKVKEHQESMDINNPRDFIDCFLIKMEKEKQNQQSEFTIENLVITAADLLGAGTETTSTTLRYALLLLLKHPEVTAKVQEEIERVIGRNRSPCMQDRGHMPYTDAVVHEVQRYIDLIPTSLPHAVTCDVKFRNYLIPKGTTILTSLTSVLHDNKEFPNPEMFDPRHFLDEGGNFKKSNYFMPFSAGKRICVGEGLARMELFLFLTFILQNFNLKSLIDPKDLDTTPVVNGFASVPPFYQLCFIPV
# A2780 [11] = assay: Induction of cell cycle arrest in human A2780 cells assessed as accumulation of cells at G2 phase at 50 nM measured after 96 hrs by PI staining based flow cytometry analysis (reference value: 4.49%); assay type: functional
# A2780 [12] = assay: Inhibition of MT-ND3 expression in human A2780 cells at 100 nM incubated for 12 hrs by RNA sequencing analysis; assay type: functional, cell-based
# A2780 [13] = assay: Antitumor activity against human A2780 cells xenografted in BALB/c nude mouse model assessed as induction of tumor shrinkage 100 mg/kg by H and E staining based immunohistochemical analysis; assay type: functional, organism-based
# [14] = Half life in ICR mouse at 10 mg/kg, po measured upto 24 hrs by LC-MS/MS analysis; assay type: ADME, organism-based; conditions: in vivo
# [15] = Toxicity in Balb/c mouse assessed as effect on kidney at 100 mg/kg by H and E staining based analysis; assay type: organism-based; conditions: in vivo
# A2780 [16] = assay: Induction of intracellular ROS generation in human A2780 cells at 0 to 5 uM by DCFH-DA staining based microscopic analysis; assay type: functional, cell-based; conditions: dose 0-5 µM
# [17] = AUC (0 to infinity) in ICR mouse at 10 mg/kg, po measured upto 24 hrs by LC-MS/MS analysis; assay type: ADME, organism-based; design: time < 24 hrs, dose 10 mg/kg, route po; conditions: in vivo
# A2780 [18] = assay: Inhibition of MT-ND1 expression in human A2780 cells at 100 nM incubated for 12 hrs by RNA sequencing analysis; assay type: functional, cell-based
# A2780 [19] = assay: Induction of cell cycle arrest in human A2780 cells assessed as accumulation of cells at G1 phase at 100 nM measured after 96 hrs by PI staining based flow cytometry analysis (reference value: 80.81%); assay type: functional
# A2780 [20] = assay: Induction of intracellular ROS generation in human A2780 cells at upto 500 nM measured after 96 hrs by DCFH-DA staining based immunofluorescence assay; assay type: functional, cell-based
# A2780 [21] = assay: Inhibition of MT-ATP8 expression in human A2780 cells at 100 nM incubated for 12 hrs by RNA sequencing analysis; assay type: functional, cell-based
# A2780 [22] = assay: Inhibition of mitochondrial transcript in human A2780 cells incubated for 12 hrs followed by compound removal and measured after 24 hrs by RT-qPCR analysis; assay type: functional, cell-based
# A2780 [23] = assay: Inhibition of MT-ND2 expression in human A2780 cells at 100 nM incubated for 12 hrs by RNA sequencing analysis; assay type: functional, cell-based
# A2780 [24] = assay: Antitumor activity against human A2780 cells xenografted in BALB/c nude mouse model assessed as reduction in NDUFB level at 100 mg/kg, po by immunoblotting analysis; assay type: functional, organism-based
# A2780 [25] = assay: Inhibition of colony formation in human A2780 cells at upto 500 nM incubated for 14 days by crystal violet staining based analysis; assay type: functional, cell-based; conditions: time 14.0 day
# A2780 [26] = assay: Inhibition of MT-ND4 expression in human A2780 cells at 100 nM incubated for 12 hrs by RNA sequencing analysis; assay type: functional, cell-based
# [27] = Cmax in ICR mouse at 10 mg/kg, po measured upto 24 hrs by LC-MS/MS analysis; assay type: ADME, organism-based; design: time < 24 hrs, dose 10 mg/kg, route po; conditions: in vivo
# IMR-90 = assay: Antiproliferative activity against human IMR-90 cells incubated for 168 hrs by SRB method; assay type: functional, cell-based; conditions: IMR-90, 168 h
# [28] = Cmax in ICR mouse at 1 mg/kg, iv measured upto 24 hrs by LC-MS/MS analysis; assay type: ADME, organism-based; design: time < 24 hrs, dose 1 mg/kg, route iv; conditions: in vivo
# A2780 [29] = assay: Inhibition of colony formation in human A2780 cells assessed as decrease in size of colonies at 10 nM incubated for 14 days by crystal violet staining based analysis; assay type: functional, cell-based; conditions: time 14.0 day
# [30] = Toxicity in Balb/c mouse assessed as effect on body weight loss at 50 to 100 mg/kg, po measured after 27 days; assay type: organism-based; conditions: in vivo, 648 h, dose 50-100 mg/kg, time 27 day
# [31] = Acute toxicity in Balb/c mouse assessed as effect on kidney 100 mg/kg measured after 27 days by H and E staining based analysis; assay type: organism-based; conditions: in vivo, 648 h, time 27 day
# A2780 [32] = assay: Inhibition of mitochondrial transcript in human A2780 cells incubated for 12 hrs followed by compound removal and measured after 36 hrs by RT-qPCR analysis; assay type: functional, cell-based
# A2780 [33] = assay: Effect on SDHB level in human A2780 cells at upto 500 nM by Western blot analysis; assay type: functional, cell-based
# [34] = AUC (0 to t) in ICR mouse at 10 mg/kg, po measured upto 24 hrs by LC-MS/MS analysis; assay type: ADME, organism-based; design: dose 10 mg/kg, time < 24 hrs, route po; conditions: in vivo
# A2780 [35] = assay: Antitumor activity against human A2780 cells xenografted in BALB/c nude mouse model assessed as reduction in […] level at 100 mg/kg, po by immunoblotting analysis; assay type: functional, organism-based
structure (smiles),measurement,setting,value
Cc1ccc(-c2cc(=O)oc3cc(O[C@H](C)C(=O)N4CC5CCC(C4)N5C)ccc23)c(C)c1,IC50,Cytochrome P450 3A4,> 40 µM
same,Vd,[1],6.4 L/kg
same,"efflux ratio at 2 h, 3 µM",[2],1.2
same,inhibition,A2780 [3],Active
same,IC50,NCI-H1975,0.108 µM
same,Activity,A2780 [4],inactive
same,inhibition at 0.5 µM,[5],15%
same,inhibition,A2780 [6],Active
same,Activity,A2780 [7],3.17%
same,Activity,A2780 [8],Dose-Dependent Effect
same,Activity,A2780 [9],3.73%
same,Activity,A2780 [10],Dose-Dependent Effect
same,IC50,Cytochrome P450 2C19,31.5 µM
same,Activity,A2780 [11],3.7%
same,inhibition,A2780 [12],Active
same,Activity,A2780 [13],Active
same,half-life,[14],2.3 h
same,Activity,[15],Non-Toxic
same,Activity,A2780 [16],inactive
same,AUC(0-inf),[17],1900 ng·h/mL
same,inhibition,A2780 [18],Active
same,Activity,A2780 [19],87.12%
same,Activity,A2780 [20],inactive
same,inhibition,A2780 [21],Active
same,inhibition,A2780 [22],inactive
same,inhibition,A2780 [23],Active
same,Activity,A2780 [24],Active
same,inhibition,A2780 [25],Active
same,inhibition,A2780 [26],Active
same,Cmax,[27],369 ng/mL
same,IC50,IMR-90,> 50 µM
same,Cmax,[28],364 ng/mL
same,inhibition,A2780 [29],Active
same,Activity,[30],Non-Toxic
same,Activity,[31],Non-Toxic
same,inhibition,A2780 [32],inactive
same,Activity,A2780 [33],inactive
same,AUC(0-t) at 24 h,[34],1830 ng·h/mL
same,Activity,A2780 [35],Active
